# Assay results taken from US7429291B2, “Print ink containing a plurality of fluorescent coloring materials and inkjet recording method” (Canon Kabushiki Kaisha, priority 2003, dated 2008).
# Tests used:
# [1] = Light absorption spectrum of coloring material; format: physicochemical
# Procedure: Next, the present invention will be described more concretely with reference to the examples and the reference examples. Here, measured values obtained with pure-water diluents of coloring materials were used for an absorption wavelength region, a maximum absorption wavelength region, and a fluorescence wavelength region. Using an absorption spectrometer, absorption wavelengths were measured.
# A diluent was prepared such that the absorbance thereof was in the range of 0.5 to 0.7. A higher region from a base line as an absorption peak of the coloring material was defined as an absorption wavelength region, and the peak value was defined as a maximum absorption wavelength region. In addition, for fluorescence wavelengths, the measurement conditions were defined such that the fluorescence intensities would not exceed the measurement threshold value. Then, the measurement of fluorescence wavelengths was performed by using the diluent used in the measurement of absorbance and by fixing the excitation wavelengths of the first and second coloring materials at predetermined wavelengths. A region higher than the base line was defined as a fluorescence emission wavelength region.
# The absorption wavelength regions of the first and second coloring materials were measured using the spectrophotometer U-3200, manufactured by Hitachi Ltd., after the sample was diluted with pure water 100,000 fold. The absorption wavelength region of the first coloring material ranged from 450 to 620 nm both inclusive, and the maximum absorption wavelength thereof was 565 nm. In addition, the absorption wavelength region of the second coloring material ranged from 300 to 450 nm both inclusive, and the maximum absorption wavelength thereof was 372 nm.
# [2] = Fluorescence emission and excitation spectra of coloring material in evaporated ink (FP-750); format: physicochemical; details: excitation at 254 nm
# Source text: Hereinafter, the print ink of the present invention will be described with reference to the drawings. Unless noted as a recorded image or a printed matter, the results are with an evaporated ink in which water was removed by evaporation and coloring materials are dispersed in an organic solvent. The print ink according to each embodiment of the present invention contains a first fluorescent coloring material that emits fluorescence of a predetermined wavelength that is used for measurement or determination, with excitation at a predetermined excitation wavelength, a second fluorescent coloring material that emits fluorescence with excitation at the same excitation wavelength, and a liquid medium for solving or dispersing these materials therein.
# Aspect 1 is characterized in that the fluorescence emission wavelength region of the second fluorescent coloring material covers at least the peak wavelength range of the excitation spectrum of the first fluorescent coloring material measured for emission at 600 nm (see FIG. 2) and/or the absorption wavelengths in the visible region of the first fluorescent coloring material (see the bottom of FIG. 6). […] Therefore, in FIG. 2, when the predetermined fluorescence wavelength of AR52 is 600 nm (the predetermined excitation wavelength: 254 nm), the peak wavelength range thereof is from 430 nm to 600 nm both inclusive. […]
# [3] = absorption spectrum of the figures, normal ink
SMILES,"absorption band in visible region [1, 3]","absorption peak wavelength in visible region [1, 3]",fluorescence emission peak wavelength [2],"maximum absorption wavelength ([1]; Example 1, diluted with pure water 100,000 fold, spectrophotometer U-3200)"
"O=C([O-])c1ccccc1-c1c2ccc(=O)cc-2oc2cc([O-])ccc12.[Na+].[Na+] [AY73, C.I. Acid Yellow 73]",≤ 525 nm,490 nm,530 nm,–
CCN(CC)c1ccc2c(-c3ccc(S(=O)(=O)[O-])cc3S(=O)(=O)[O-])c3ccc(=[N+](CC)CC)cc-3oc2c1.[Na+] [C.I. Acid Red 52],–,565 nm,600 nm,565 nm
